Data taken from ChEMBL document CHEMBL1201862, “PubChem BioAssay data set” (2004).
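All cell lines were grown in 96-well plates and treated with compound for 48 hours. GI50: concentration for 50% inhibition of growth.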 Active and inactive are the calls of the source. Rule as the data show it: active = GI50 up to about 1.1 µM and inactive = higher.

Experiments:
Assay in all cases: inhibition of tumour cell growth, NCI panel, 48 h
HL-60 = system: HL-60
HCT-15 = system: HCT-15
K562 = system: K562
UACC-62 = system: UACC-62
SF-268 = system: SF-268
NCI-H23 = system: NCI-H23
Hs-578T = system: Hs-578T
RXF 393 = system: RXF 393
SNB-19 = system: SNB-19
HCC 2998 = system: HCC 2998
SK-OV-3 = system: SK-OV-3
UACC-257 = system: UACC-257
EKVX = system: EKVX
SNB-75 = system: SNB-75
HOP-92 = system: HOP-92
SK-MEL-5 = system: SK-MEL-5
RPMI-8226 = system: RPMI-8226
KM12 = system: KM12
OVCAR-3 = system: OVCAR-3
SN12C = system: SN12C

| Compound | GI50 (HL-60) | GI50 (HCT-15) [µM] | GI50 (K562) | GI50 (UACC-62) | GI50 (SF-268) | GI50 (NCI-H23) | GI50 (Hs-578T) | GI50 (RXF 393) | GI50 (SNB-19) | GI50 (HCC 2998) | GI50 (SK-OV-3) | GI50 (UACC-257) | GI50 (EKVX) | GI50 (SNB-75) | GI50 (HOP-92) | GI50 (SK-MEL-5) | GI50 (RPMI-8226) | GI50 (KM12) | GI50 (OVCAR-3) | GI50 (SN12C) |
| --- | --- | --- | --- | --- | --- | --- | --- | --- | --- | --- | --- | --- | --- | --- | --- | --- | --- | --- | --- | --- |
| COc1cc(OC)cc(Oc2nc3c(N)cc(C(F)(F)F)cc3nc2-c2ccccc2)c1 | 16.6 µM (inactive) | 18.1 | 2.71 µM (inactive) | > 100 µM (inactive) | 74.8 µM (inactive) | 92.7 µM (inactive) | 80.4 µM (inactive) | 21.1 µM (inactive) | 95.7 µM (inactive) | 24.3 µM (inactive) | 44.4 µM (inactive) | 79.3 µM (inactive) | 25.5 µM (inactive) | 47.9 µM (inactive) | > 100 µM (inactive) | 37.3 µM (inactive) | 16.4 µM (inactive) | 13.8 µM (inactive) | – | – |
| O=C(/C=C/c1ccc2c(c1)OCO2)c1ccc(O)cc1 | 5.25 µM (inactive) | 13.4 | 5.58 µM (inactive) | 16.8 µM (inactive) | 45.9 µM (inactive) | 15.5 µM (inactive) | 17.6 µM (inactive) | 15.6 µM (inactive) | 16.8 µM (inactive) | 17.9 µM (inactive) | 16.5 µM (inactive) | 15.3 µM (inactive) | 16.6 µM (inactive) | 25.1 µM (inactive) | 14.5 µM (inactive) | 15.6 µM (inactive) | – | – | 15.5 µM (inactive) | 15.5 µM (inactive) |
| N#CC(N)c1ccc(OCCCCCCCCCCOc2ccc(C(N)C#N)cc2)cc1 (configuration not stated) | 52.1 µM (inactive) | > 100 | > 100 µM (inactive) | > 100 µM (inactive) | > 100 µM (inactive) | > 100 µM (inactive) | > 100 µM (inactive) | 43.2 µM (inactive) | > 100 µM (inactive) | > 100 µM (inactive) | > 100 µM (inactive) | > 100 µM (inactive) | > 100 µM (inactive) | – | > 100 µM (inactive) | > 100 µM (inactive) | – | > 100 µM (inactive) | > 100 µM (inactive) | > 100 µM (inactive) |
| C=Cc1nc(C#N)c(N)o1 | > 100 µM (inactive) | > 100 | > 100 µM (inactive) | – | > 100 µM (inactive) | > 100 µM (inactive) | > 100 µM (inactive) | > 100 µM (inactive) | > 100 µM (inactive) | > 100 µM (inactive) | > 100 µM (inactive) | > 100 µM (inactive) | > 100 µM (inactive) | > 100 µM (inactive) | > 100 µM (inactive) | > 100 µM (inactive) | > 100 µM (inactive) | > 100 µM (inactive) | > 100 µM (inactive) | > 100 µM (inactive) |
| O=c1cc(CO)oc(C(O)c2ccccc2)c1O (configuration not stated) | > 100 µM (inactive) | > 100 | – | > 100 µM (inactive) | > 100 µM (inactive) | > 100 µM (inactive) | > 100 µM (inactive) | > 100 µM (inactive) | > 100 µM (inactive) | > 100 µM (inactive) | > 100 µM (inactive) | > 100 µM (inactive) | – | > 100 µM (inactive) | > 100 µM (inactive) | > 100 µM (inactive) | > 100 µM (inactive) | > 100 µM (inactive) | > 100 µM (inactive) | > 100 µM (inactive) |
| O=C(Nc1nncs1)NS(=O)(=O)n1cnc2ccccc21 | > 100 µM (inactive) | > 100 | – | > 100 µM (inactive) | > 100 µM (inactive) | > 100 µM (inactive) | > 100 µM (inactive) | > 100 µM (inactive) | > 100 µM (inactive) | > 100 µM (inactive) | > 100 µM (inactive) | > 100 µM (inactive) | > 100 µM (inactive) | > 100 µM (inactive) | > 100 µM (inactive) | > 100 µM (inactive) | > 100 µM (inactive) | > 100 µM (inactive) | > 100 µM (inactive) | > 100 µM (inactive) |
| C=CC(C)(C)/C(=C\CO[Si](C(C)C)(C(C)C)C(C)C)C(=O)N(C)c1ccccc1I | 1.73 µM (inactive) | 16.4 | – | 13.1 µM (inactive) | 11.5 µM (inactive) | 11 µM (inactive) | 11.8 µM (inactive) | 11.4 µM (inactive) | 14.5 µM (inactive) | 13.2 µM (inactive) | 16.3 µM (inactive) | 13.3 µM (inactive) | 16 µM (inactive) | 16.3 µM (inactive) | 8.61 µM (inactive) | 17.7 µM (inactive) | 2.96 µM (inactive) | 27.5 µM (inactive) | 11.6 µM (inactive) | 16.2 µM (inactive) |
| COc1ccc(/N=C2\S/C(=N\C(=N\c3ccccc3)SCc3ccccc3)N(c3ccccc3)\C2=N/c2ccc(OC)cc2)cc1 | > 100 µM (inactive) | > 100 | > 100 µM (inactive) | > 100 µM (inactive) | – | > 100 µM (inactive) | > 100 µM (inactive) | > 100 µM (inactive) | > 100 µM (inactive) | > 100 µM (inactive) | – | > 100 µM (inactive) | > 100 µM (inactive) | > 100 µM (inactive) | > 100 µM (inactive) | > 100 µM (inactive) | > 100 µM (inactive) | > 100 µM (inactive) | – | > 100 µM (inactive) |
| O=C1c2cc3c(cc2CC12Cc1ccccc1C2)CCC3 | 25.5 µM (inactive) | 33.9 | 44.3 µM (inactive) | – | 34.8 µM (inactive) | 50.5 µM (inactive) | 31.6 µM (inactive) | 22.1 µM (inactive) | > 100 µM (inactive) | 31 µM (inactive) | > 100 µM (inactive) | 20.1 µM (inactive) | 29.9 µM (inactive) | 31.6 µM (inactive) | 23.9 µM (inactive) | 18.3 µM (inactive) | 21.9 µM (inactive) | 24.9 µM (inactive) | 41.8 µM (inactive) | 29.1 µM (inactive) |
| CC(C)(CNC(=O)/C(Cl)=C(/Cl)C(=O)O)CNC(=O)/C(Cl)=C(/Cl)C(=O)O | 34 µM (inactive) | > 10 | 40.1 µM (inactive) | > 100 µM (inactive) | – | – | > 100 µM (inactive) | > 100 µM (inactive) | > 100 µM (inactive) | > 100 µM (inactive) | > 100 µM (inactive) | > 100 µM (inactive) | > 100 µM (inactive) | > 100 µM (inactive) | 78.3 µM (inactive) | > 100 µM (inactive) | 22.6 µM (inactive) | > 100 µM (inactive) | > 100 µM (inactive) | > 10 µM (inactive) |
| COc1c(-c2nc3ccc(N4CCN(C)CC4)nc3[nH]2)cc(OC)c2c1nc(CO)n2C | 81.7 µM (inactive) | > 100 | > 100 µM (inactive) | > 100 µM (inactive) | > 100 µM (inactive) | > 100 µM (inactive) | > 100 µM (inactive) | > 100 µM (inactive) | > 100 µM (inactive) | > 100 µM (inactive) | > 100 µM (inactive) | > 100 µM (inactive) | > 100 µM (inactive) | 31.1 µM (inactive) | > 100 µM (inactive) | – | > 100 µM (inactive) | > 100 µM (inactive) | > 100 µM (inactive) | > 100 µM (inactive) |
| CC1OC(=O)c2ccccc2NC1=O (configuration not stated) | > 100 µM (inactive) | > 100 | > 100 µM (inactive) | > 100 µM (inactive) | > 100 µM (inactive) | > 100 µM (inactive) | > 100 µM (inactive) | > 100 µM (inactive) | > 100 µM (inactive) | – | > 100 µM (inactive) | > 100 µM (inactive) | > 100 µM (inactive) | > 100 µM (inactive) | > 100 µM (inactive) | > 100 µM (inactive) | > 100 µM (inactive) | > 100 µM (inactive) | > 100 µM (inactive) | > 100 µM (inactive) |
| NCC(=O)N1CCN(c2nc(N3CCCC3)c3nc(Cl)c(NCc4ccccc4)nc3n2)CC1 | 1.81 µM (inactive) | 1.97 | – | 1.8 µM (inactive) | 2.07 µM (inactive) | 1.95 µM (inactive) | 2.12 µM (inactive) | 1.43 µM (inactive) | 1.82 µM (inactive) | 1.66 µM (inactive) | 1.81 µM (inactive) | 1.74 µM (inactive) | 1.87 µM (inactive) | 1.57 µM (inactive) | 1.45 µM (inactive) | 1.72 µM (inactive) | – | 2.04 µM (inactive) | 1.82 µM (inactive) | 1.85 µM (inactive) |
| Nc1ccc(Oc2ccc(C3(c4ccc(Oc5ccc(N)cc5)cc4)C4CC5CC(C4)CC3C5)cc2)cc1 | 5 µM (inactive) | 4.94 | 3.89 µM (inactive) | 17.3 µM (inactive) | 20.3 µM (inactive) | 13.8 µM (inactive) | > 22.1 µM (inactive) | 6.3 µM (inactive) | 21.4 µM (inactive) | 0.322 µM (active) | – | 6.67 µM (inactive) | 9.53 µM (inactive) | 54 µM (inactive) | 11.5 µM (inactive) | 14.4 µM (inactive) | 3 µM (inactive) | 3.77 µM (inactive) | 0.353 µM (active) | 6.28 µM (inactive) |
| CSC(Cc1ccc2c(c1)Sc1ccccc1O2)=[N+]1CCOCC1 | 37.9 µM (inactive) | 43.5 | 79.6 µM (inactive) | 58.5 µM (inactive) | 61.2 µM (inactive) | 40.7 µM (inactive) | 30.7 µM (inactive) | 37.6 µM (inactive) | 83.9 µM (inactive) | 91.8 µM (inactive) | > 100 µM (inactive) | 43 µM (inactive) | 58.1 µM (inactive) | 32.4 µM (inactive) | 48.5 µM (inactive) | – | 49.8 µM (inactive) | 51.4 µM (inactive) | 52.6 µM (inactive) | > 100 µM (inactive) |
